Data on four molecules can be found in ChEMBL document CHEMBL5113413, “New peptidomimetic rhodesain inhibitors with improved selectivity towards human cathepsins” (Eur J Med Chem, 2022).

The source made the active and inactive calls. No cut-off for these calls is given here.

The target of one series is Rhodesain (Trypanosoma brucei rhodesiense, UniProt Q95PM0). Nature of the series: Irreversible inhibition of Trypanosoma brucei rhodesiense rhodesain assessed as inhibition constant using Cbz-Phe-Arg-AMC as fluorogenic substrate by fluorometric assay.
Sequence of Rhodesain (Q95PM0 whole entry): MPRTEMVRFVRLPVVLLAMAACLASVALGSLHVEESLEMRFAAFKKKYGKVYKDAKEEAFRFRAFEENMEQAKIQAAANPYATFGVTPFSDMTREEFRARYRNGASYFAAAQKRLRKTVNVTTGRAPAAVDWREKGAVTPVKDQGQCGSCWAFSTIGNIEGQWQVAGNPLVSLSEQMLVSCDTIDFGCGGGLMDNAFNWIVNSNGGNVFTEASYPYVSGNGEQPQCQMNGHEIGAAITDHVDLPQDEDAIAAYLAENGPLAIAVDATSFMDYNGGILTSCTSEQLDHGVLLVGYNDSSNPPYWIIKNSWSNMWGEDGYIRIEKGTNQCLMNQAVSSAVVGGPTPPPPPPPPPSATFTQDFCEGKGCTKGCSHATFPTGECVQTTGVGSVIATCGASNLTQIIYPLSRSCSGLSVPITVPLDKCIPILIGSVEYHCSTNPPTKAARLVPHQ
Series [1] has as its target T1, Procathepsin L (Homo sapiens, UniProt P07711). Put plainly: Irreversible inhibition of human Cathepsin L assessed as inhibition constant using Cbz-Phe-Arg-AMC as fluorogenic substrate by fluorometric assay.
Target sequence in this assay (P07711 whole entry): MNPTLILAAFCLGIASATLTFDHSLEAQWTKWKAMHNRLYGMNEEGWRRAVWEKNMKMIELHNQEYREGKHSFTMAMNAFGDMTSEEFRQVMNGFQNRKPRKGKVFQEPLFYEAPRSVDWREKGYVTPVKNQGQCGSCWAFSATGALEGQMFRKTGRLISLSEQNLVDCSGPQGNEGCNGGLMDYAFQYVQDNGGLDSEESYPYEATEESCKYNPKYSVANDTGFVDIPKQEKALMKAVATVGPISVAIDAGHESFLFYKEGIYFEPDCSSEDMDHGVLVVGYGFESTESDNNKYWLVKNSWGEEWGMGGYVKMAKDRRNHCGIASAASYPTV
The target of series [2] is T2, Cathepsin B (Homo sapiens, UniProt P07858). Nature of the series: Irreversible inhibition of human Cathepsin B assessed as inhibition constant using Cbz-Phe-Arg-AMC as fluorogenic substrate by fluorometric assay.
In series [3] the test system is Trypanosoma brucei brucei. Put plainly: Antitrypanosomal activity against Trypanosoma brucei brucei BS449 assessed as luminescence incubated for 48 hrs by ATPlite assay. As to conditions: BS449, 48 h. Type of series: functional, organism-based. (In general: ATP-based viability assays read luminescence as a measure of living cells.)
The nature of series [4]: Cytotoxicity against mouse J774.1 cells assessed as reduction in cell viability incubated for 48 hrs by MTT assay. It is filed as toxicity, cell-based. A general note: Tetrazolium assays rely on reduction of a dye to a coloured formazan, in cell work by metabolically active cells.
Series [5] deals with T3, 20S proteasome (Homo sapiens) (UniProt P49721+P20618+P28074+P28062+P28065+P28072+P25786+P25787+P25788+P25789+P28066+P60900+O14818+Q8TAA3+P40306+A5LHX3+P49720+P28070+Q99436). Put plainly: Inhibition of human 20S proteasome trypsin-like activity at 11 uM using Boc-Leu-Arg-Arg-AMC as fluorogenic substrate by fluorometric assay. It is filed as protein-complex assay.
Series [6] has as its target T3, 20S proteasome (Homo sapiens). Put plainly: Inhibition of human 20S proteasome caspase-like activity at 11 uM using Cbz-Leu-Leu-Glu-AMC as fluorogenic substrate by fluorometric assay. It is filed as protein-complex assay.
For series [7] the target is unchanged. Nature of the series: Inhibition of human 20S proteasome chymotrypsin-like activity at 11 uM using Succ-Leu-Leu-Val-Tyr-AMC as fluorogenic substrate by fluorometric assay. Type of series: protein-complex assay.
Series [8] addresses T1, Procathepsin L. Nature of the series: Inhibition of human Cathepsin L at 20 uM using Cbz-Phe-Arg-AMC as fluorogenic substrate by fluorometric assay.
Target sequence in this assay (P07711 114-333 limits assumed): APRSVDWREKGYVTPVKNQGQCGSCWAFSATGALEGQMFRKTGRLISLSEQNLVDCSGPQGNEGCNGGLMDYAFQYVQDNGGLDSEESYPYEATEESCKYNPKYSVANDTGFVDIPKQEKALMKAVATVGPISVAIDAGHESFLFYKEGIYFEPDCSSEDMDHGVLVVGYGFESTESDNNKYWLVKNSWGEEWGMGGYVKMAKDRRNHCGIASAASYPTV
Series [9] deals with T2, Cathepsin B. Nature of the series: Inhibition of human Cathepsin B at 20 uM using Cbz-Phe-Arg-AMC as fluorogenic substrate by fluorometric assay.
Series [10] has as its target Rhodesain (Trypanosoma brucei rhodesiense) (UniProt Q95PM0). Put plainly: Reversible inhibition of Trypanosoma brucei rhodesiense rhodesain assessed as recovery of enzyme activity preincubated for 30 mins followed by substrate addition using Cbz-Phe-Arg-AMC as fluorogenic substrate by fluorometric 100-fold dilution assay.
Series [11] shares this target. Put plainly: Irreversible inhibition of Trypanosoma brucei rhodesiense rhodesain assessed as no recovery of enzyme activity preincubated for 30 mins followed by substrate addition using Cbz-Phe-Arg-AMC as fluorogenic substrate by fluorometric 100-fold dilution assay.
Series [12] has the same target. Nature of the series: Inhibition of Trypanosoma brucei rhodesiense rhodesain at 20 uM using Cbz-Phe-Arg-AMC as fluorogenic substrate by fluorometric assay.

Sequence of Rhodesain (Trypanosoma brucei rhodesiense) (Q95PM0 1-450): as the sequence (Q95PM0 whole entry) above

On to `O=C(NCc1ccccc1C(=O)N[C@H](/C=C/S(=O)(=O)c1ccccc1)CCc1ccccc1)c1ccccc1`, for which the values for the Ki on Rhodesain, on Procathepsin L [1] and at Cathepsin B [2] were 0.1 µM, 1.49 µM and 1.98 µM, respectively. Moreover, the EC50 in [3] was found to be 3.6 µM. In addition, in series [4], the CC50 at 48 h was over 100 µM. Moreover, the inhibition was 23% in [5], 39% in series [6] and 14% in [7].

As to `O=C(NCc1ccccc1C(=O)N[C@H](/C=C(\F)S(=O)(=O)Oc1ccccc1)CCc1ccccc1)c1ccc2c(c1)OCCO2`, at Rhodesain, the Ki was determined as 0.379 µM. Moreover, the results for the inhibition on Procathepsin L [8] and on Cathepsin B [9] were 23% and under 10%, respectively. Further, the EC50 in series [3] was determined as 3 µM. In addition, the CC50 at 48 h in series [4] is over 100 µM. Besides, the inhibition result in [10] and in series [11] was “Active” each time.

Take `O=C(NCc1ccccc1C(=O)N[C@H](/C=C(\F)S(=O)(=O)c1ccccc1)CCc1ccccc1)c1ccc2c(c1)OCCO2`: on Rhodesain, the Ki came to 0.339 µM. Besides, the inhibition is 31% against Procathepsin L [8], under 10% against Cathepsin B [9], 14% in series [5] and 34% in series [6]. Besides, the inhibition entry in series [10] and in [11] was “Active” throughout.

With `CN1CCN(C(=O)NCc2ccccc2C(=O)N[C@H](/C=C(\F)S(=O)(=O)c2ccccc2)CCc2ccccc2)CC1`, the inhibition in series [12] is 18%.

What is called EC50 is the midpoint of the concentration-response curve. A word on the CC50: it is the concentration at which the toxic effect on the cells reaches its halfway point. The term inhibition denotes the change of the read-out against control, counted positive when it falls.
